{"source": "patent US20080009418A1", "about": "“Selective Inhibitors” (Alchemia LTD., priority 2004, published 2008)", "key": {"[1]": {"molecular_target": "T1, Human melanin-concentrating hormone (MCH1) (Homo sapiens, UniProt Q99705)", "T1 construct": "purchased Perkin Elmer Biosignal", "T1 sequence (Q99705 whole entry)": "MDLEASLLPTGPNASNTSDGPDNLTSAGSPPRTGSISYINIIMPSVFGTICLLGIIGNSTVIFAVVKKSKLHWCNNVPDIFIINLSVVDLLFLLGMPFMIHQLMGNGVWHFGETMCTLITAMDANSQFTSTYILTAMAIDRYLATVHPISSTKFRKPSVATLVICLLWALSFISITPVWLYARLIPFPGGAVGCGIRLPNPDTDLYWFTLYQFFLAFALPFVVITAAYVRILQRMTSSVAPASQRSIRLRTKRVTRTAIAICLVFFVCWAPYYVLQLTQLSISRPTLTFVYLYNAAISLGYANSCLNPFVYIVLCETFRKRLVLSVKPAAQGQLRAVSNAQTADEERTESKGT", "experiment": "Radioligand binding, human melanin-concentrating hormone MCH1 membranes, FlashPlate, [125I]-S36057", "settings": "compound at 10 μM", "procedure,_shortened": "(§1)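 Cloned human receptor membranes were coated onto FlashPlate wells and incubated with radioligand and compound (added from a 0.5 mM DMSO daughter plate) for 1 hour at room temperature in the dark. Scintillation counting gave percent inhibition, with DMSO defining total and reference ligand defining non-specific binding.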"}, "Human melanocortin (MC5)": {"molecular_target": "T2, Human melanocortin (MC5) (Homo sapiens, UniProt P33032)", "T2 construct": "purchased Perkin Elmer Biosignal", "T2 sequence (P33032 whole entry)": "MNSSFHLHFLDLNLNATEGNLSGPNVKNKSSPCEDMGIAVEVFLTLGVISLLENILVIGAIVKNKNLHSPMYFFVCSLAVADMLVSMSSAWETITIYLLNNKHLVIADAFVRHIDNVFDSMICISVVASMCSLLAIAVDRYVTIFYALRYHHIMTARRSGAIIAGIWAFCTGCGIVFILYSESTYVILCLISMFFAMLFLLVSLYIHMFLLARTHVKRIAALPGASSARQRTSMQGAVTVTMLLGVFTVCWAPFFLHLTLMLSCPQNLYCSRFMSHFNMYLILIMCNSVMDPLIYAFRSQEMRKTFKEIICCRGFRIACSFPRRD", "experiment": "Radioligand binding, human melanocortin MC5 membranes, FlashPlate, [125I]-NDP-αMSH", "settings": "compound at 10 μM", "procedure,_shortened": "as §1"}, "Human opioid (ORL1)": {"molecular_target": "T3, Human opioid (ORL1) (Homo sapiens, UniProt P41146)", "T3 construct": "purchased Perkin Elmer Biosignal", "T3 sequence (P41146 whole entry)": "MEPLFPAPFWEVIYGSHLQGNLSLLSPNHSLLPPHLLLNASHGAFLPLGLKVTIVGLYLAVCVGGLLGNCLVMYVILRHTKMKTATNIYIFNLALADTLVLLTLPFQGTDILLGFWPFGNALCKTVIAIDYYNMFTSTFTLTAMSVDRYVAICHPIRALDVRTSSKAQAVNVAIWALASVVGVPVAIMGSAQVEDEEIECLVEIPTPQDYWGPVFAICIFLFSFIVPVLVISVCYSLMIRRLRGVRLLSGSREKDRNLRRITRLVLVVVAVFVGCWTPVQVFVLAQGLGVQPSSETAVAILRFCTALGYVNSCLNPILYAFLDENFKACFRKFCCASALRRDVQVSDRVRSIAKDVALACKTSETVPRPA", "experiment": "Radioligand binding, human opioid ORL1 membranes, FlashPlate, [125I]-Nociceptin", "settings": "compound at 10 μM, human ORL1 membranes", "procedure,_shortened": "as §1"}, "[2]": {"molecular_target": "T4, Human neuropeptide Y (NPY-Y1) (Homo sapiens, UniProt P25929)", "T4 construct": "purchased Perkin Elmer Biosignal", "T4 sequence (P25929 1-384)": "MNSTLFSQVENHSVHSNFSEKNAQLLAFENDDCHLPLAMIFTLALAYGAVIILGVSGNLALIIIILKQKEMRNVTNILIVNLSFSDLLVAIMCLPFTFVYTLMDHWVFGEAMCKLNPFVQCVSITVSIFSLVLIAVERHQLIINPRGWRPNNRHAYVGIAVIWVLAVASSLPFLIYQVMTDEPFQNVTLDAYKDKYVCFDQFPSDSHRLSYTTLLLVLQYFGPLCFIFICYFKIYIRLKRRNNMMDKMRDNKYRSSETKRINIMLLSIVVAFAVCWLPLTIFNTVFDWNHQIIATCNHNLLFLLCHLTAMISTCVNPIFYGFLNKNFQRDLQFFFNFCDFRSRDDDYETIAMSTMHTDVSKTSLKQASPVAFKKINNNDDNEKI", "experiment": "Radioligand binding, human neuropeptide Y NPY-Y1 membranes, FlashPlate, [125I]-PYY", "settings": "compound at 10 μM, human NPY-Y1 membranes", "procedure,_shortened": "as §1"}, "Human κ-Opioid (KOP)": {"molecular_target": "T5, Human κ-Opioid (KOP) (Homo sapiens, UniProt P41145)", "T5 construct": "purchased Perkin Elmer Biosignal", "T5 sequence (P41145 whole entry)": "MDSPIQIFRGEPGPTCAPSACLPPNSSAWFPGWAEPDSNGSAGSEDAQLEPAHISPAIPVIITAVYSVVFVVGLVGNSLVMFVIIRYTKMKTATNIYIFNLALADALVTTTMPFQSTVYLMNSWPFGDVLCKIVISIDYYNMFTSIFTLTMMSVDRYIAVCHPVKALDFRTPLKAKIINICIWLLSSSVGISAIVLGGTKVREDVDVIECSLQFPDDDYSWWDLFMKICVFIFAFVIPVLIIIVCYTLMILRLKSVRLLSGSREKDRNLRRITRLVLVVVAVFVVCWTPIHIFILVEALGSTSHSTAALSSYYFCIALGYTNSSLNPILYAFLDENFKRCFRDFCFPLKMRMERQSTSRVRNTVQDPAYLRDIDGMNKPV", "experiment": "Radioligand binding, human κ-opioid (KOP) membranes, filtration, [3H]-Diprenorphine", "settings": "compound at 10 μM", "procedure,_shortened": "(§2)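 Membranes from cloned human receptors were incubated with compound and radioligand for 1 hour at room temperature. Bound ligand was collected on 0.3% PEI-soaked filters, washed with cold 50 mM Tris-HCl pH 7.4, and counted by scintillation. Percent inhibition was computed against DMSO totals and reference-ligand nonspecific wells.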"}, "Human neurokinin (NK1)": {"molecular_target": "T6, Human neurokinin (NK1) (Homo sapiens, UniProt P25103)", "T6 construct": "purchased Perkin Elmer Biosignal", "T6 sequence (P25103 whole entry)": "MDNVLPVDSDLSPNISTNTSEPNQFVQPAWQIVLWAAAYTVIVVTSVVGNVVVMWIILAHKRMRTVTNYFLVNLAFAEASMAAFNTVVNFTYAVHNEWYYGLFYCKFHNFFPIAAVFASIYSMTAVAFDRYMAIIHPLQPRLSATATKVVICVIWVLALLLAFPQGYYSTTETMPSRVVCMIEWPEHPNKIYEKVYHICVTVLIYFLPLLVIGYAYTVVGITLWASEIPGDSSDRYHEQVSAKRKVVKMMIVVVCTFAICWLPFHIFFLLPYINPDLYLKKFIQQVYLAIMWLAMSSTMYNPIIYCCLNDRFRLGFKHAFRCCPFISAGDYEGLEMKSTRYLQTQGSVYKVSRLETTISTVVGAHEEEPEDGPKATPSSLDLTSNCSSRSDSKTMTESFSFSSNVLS", "experiment": "Radioligand binding, human neurokinin NK1 membranes, filtration, [125I]-Substance P", "settings": "compound at 10 μM", "procedure,_shortened": "as §2"}, "Human Melanocortin (MC3)": {"molecular_target": "T7, Human Melanocortin (MC3) (Homo sapiens, UniProt P41968)", "T7 construct": "purchased Perkin Elmer Biosignal", "T7 sequence (P41968 whole entry)": "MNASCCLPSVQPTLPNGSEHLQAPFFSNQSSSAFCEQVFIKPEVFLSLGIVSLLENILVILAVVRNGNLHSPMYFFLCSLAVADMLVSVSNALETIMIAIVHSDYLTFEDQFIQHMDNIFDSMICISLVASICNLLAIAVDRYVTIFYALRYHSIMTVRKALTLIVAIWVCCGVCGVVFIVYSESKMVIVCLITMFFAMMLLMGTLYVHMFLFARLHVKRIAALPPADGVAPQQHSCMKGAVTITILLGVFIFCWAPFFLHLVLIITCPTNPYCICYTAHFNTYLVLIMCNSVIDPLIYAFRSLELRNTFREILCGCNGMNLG", "experiment": "Radioligand binding, human melanocortin MC3 membranes, FlashPlate, [125I]-NDP-αMSH", "settings": "compound at 10 μM", "procedure,_shortened": "as §1"}, "Human μ-opioid (MOP)": {"molecular_target": "T8, Human μ-opioid (MOP) (Homo sapiens, UniProt P35372)", "T8 construct": "purchased Perkin Elmer Biosignal", "T8 sequence (P35372 whole entry)": "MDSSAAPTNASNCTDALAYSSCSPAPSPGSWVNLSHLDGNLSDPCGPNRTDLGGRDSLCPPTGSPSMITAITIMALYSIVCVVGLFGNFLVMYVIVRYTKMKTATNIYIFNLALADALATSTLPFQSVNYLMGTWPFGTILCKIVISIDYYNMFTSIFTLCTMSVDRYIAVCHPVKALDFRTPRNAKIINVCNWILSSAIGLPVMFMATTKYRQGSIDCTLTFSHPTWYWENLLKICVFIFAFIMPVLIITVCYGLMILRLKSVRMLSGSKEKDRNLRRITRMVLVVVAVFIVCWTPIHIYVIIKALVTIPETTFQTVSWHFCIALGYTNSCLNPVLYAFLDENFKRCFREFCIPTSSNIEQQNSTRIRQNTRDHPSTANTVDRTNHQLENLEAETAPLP", "experiment": "Radioligand binding, human μ-opioid (MOP) membranes, FlashPlate, [3H]-Naloxone", "settings": "compound at 10 μM", "procedure,_shortened": "as §1"}, "Human Melanocortin (MC4)": {"molecular_target": "T9, Human Melanocortin (MC4) (Homo sapiens, UniProt P32245)", "T9 construct": "purchased Perkin Elmer Biosignal", "T9 sequence (P32245 whole entry)": "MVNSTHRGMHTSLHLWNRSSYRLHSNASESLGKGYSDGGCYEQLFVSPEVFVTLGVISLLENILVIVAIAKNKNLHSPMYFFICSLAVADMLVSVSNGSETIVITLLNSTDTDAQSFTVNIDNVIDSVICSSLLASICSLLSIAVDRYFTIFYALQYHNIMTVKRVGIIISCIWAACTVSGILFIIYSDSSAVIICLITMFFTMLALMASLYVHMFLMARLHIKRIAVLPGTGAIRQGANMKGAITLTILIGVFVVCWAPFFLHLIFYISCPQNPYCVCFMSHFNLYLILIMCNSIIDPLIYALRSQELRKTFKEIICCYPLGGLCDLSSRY", "experiment": "Radioligand binding, human melanocortin MC4 membranes, FlashPlate, [125I]-NDP-αMSH", "settings": "compound at 10 μM", "procedure,_shortened": "as §1"}, "Mouse urotensin (mUR2)": {"molecular_target": "T10, Mouse urotensin (mUR2) (Mus musculus, UniProt Q8VIH9)", "T10 construct": "purchased Perkin Elmer Biosignal", "T10 sequence (Q8VIH9 1-385)": "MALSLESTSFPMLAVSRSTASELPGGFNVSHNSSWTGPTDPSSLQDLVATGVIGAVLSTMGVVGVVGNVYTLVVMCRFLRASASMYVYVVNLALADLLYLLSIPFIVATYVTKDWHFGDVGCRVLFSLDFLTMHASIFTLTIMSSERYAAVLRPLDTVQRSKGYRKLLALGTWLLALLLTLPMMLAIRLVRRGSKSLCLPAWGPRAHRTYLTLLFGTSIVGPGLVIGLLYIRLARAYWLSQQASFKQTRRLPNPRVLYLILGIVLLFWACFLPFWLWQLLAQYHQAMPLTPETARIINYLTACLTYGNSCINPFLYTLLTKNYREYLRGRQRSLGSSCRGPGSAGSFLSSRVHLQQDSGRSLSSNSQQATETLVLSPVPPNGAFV", "experiment": "Radioligand binding, mouse urotensin mUR2 membranes, FlashPlate, [125I]-Urotensin II", "settings": "compound at 10 μM", "procedure,_shortened": "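Cloned mouse urotensin (mUR2) receptor membranes from Perkin Elmer Biosignal were immobilized in FlashPlate microplates using a proprietary coating. Each well got 19.5 μl buffer, then 0.5 μl of DMSO, reference ligand, or compound. Adding 5 μl of [125I]-Urotensin II, diluted to 5× final concentration in binding buffer, started binding. Plates were sealed with TopSeal-A and incubated 1 hour at room temperature in the dark. Wells were counted for 30 seconds each on a TopCount after a 60-second delay, and percentage inhibition was calculated.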"}, "Human δ-opioid (DOP)": {"molecular_target": "T11, Human δ-opioid (DOP) (Homo sapiens, UniProt P41143)", "T11 construct": "purchased Perkin Elmer Biosignal", "T11 sequence (P41143 whole entry)": "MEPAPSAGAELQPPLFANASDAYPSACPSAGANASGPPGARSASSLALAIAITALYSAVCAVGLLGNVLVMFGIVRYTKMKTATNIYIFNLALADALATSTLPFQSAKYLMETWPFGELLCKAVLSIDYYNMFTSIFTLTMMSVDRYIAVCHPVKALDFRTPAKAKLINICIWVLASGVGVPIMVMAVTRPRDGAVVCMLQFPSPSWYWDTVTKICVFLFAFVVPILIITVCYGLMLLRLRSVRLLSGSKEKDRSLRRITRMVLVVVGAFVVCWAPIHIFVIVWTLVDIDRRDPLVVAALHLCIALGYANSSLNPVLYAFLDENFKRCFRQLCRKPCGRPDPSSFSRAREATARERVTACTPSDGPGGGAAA", "experiment": "Radioligand binding, human δ-opioid (DOP) membranes, FlashPlate, [3H]-Bremazocine", "settings": "compound at 10 μM", "procedure,_shortened": "as §1"}}}
{"smiles": "NCCCC(=O)NC1C(OCc2ccc3ccccc3c2)OC(COCc2ccc(Cl)cc2)C(O)C1OCc1ccc2ccccc2c1", "note": "(single isomer, unassigned) [compound 464]", "values": [{"measurement": "A6: inhibition of radioligand binding", "setting": "[1]; [125I]-S36057, human MCH1 membranes, 10 µM", "value": "+ (“+” indicates greater than 50% inhibition at 10 μM)"}, {"measurement": "A5: inhibition of radioligand binding", "setting": "Human melanocortin (MC5); [125I]-NDP-αMSH, human MC5 membranes", "value": "+ (“+” indicates greater than 50% inhibition at 10 μM)"}, {"measurement": "A10: inhibition of radioligand binding", "setting": "Human opioid (ORL1); [125I]-Nociceptin, 10 µM", "value": "+ (“+” indicates greater than 50% inhibition at 10 μM)"}, {"measurement": "A9: inhibition of radioligand binding", "setting": "[2]; [125I]-PYY", "value": "− (“−” indicates less than 50% inhibition at 10 μM)"}, {"measurement": "A2: inhibition of radioligand binding", "setting": "Human κ-Opioid (KOP); [3H]-Diprenorphine, human KOP membranes, 10 µM", "value": "− (“−” indicates less than 50% inhibition at 10 μM)"}, {"measurement": "A8: inhibition of radioligand binding", "setting": "Human neurokinin (NK1); [125I]-Substance P, human NK1 membranes", "value": "+ (“+” indicates greater than 50% inhibition at 10 μM)"}, {"measurement": "A3: inhibition of radioligand binding", "setting": "Human Melanocortin (MC3); [125I]-NDP-αMSH, human MC3 membranes", "value": "+ (“+” indicates greater than 50% inhibition at 10 μM)"}, {"measurement": "A7: inhibition of radioligand binding", "setting": "Human μ-opioid (MOP); [3H]-Naloxone, human MOP membranes", "value": "− (“−” indicates less than 50% inhibition at 10 μM)"}, {"measurement": "A4: inhibition of radioligand binding", "setting": "Human Melanocortin (MC4); [125I]-NDP-αMSH, human MC4 membranes", "value": "+ (“+” indicates greater than 50% inhibition at 10 μM)"}, {"measurement": "A11: inhibition of radioligand binding", "setting": "Mouse urotensin (mUR2); [125I]-Urotensin II, mouse mUR2 membranes", "value": "− (“−” indicates less than 50% inhibition at 10 μM)"}, {"measurement": "A1: inhibition of radioligand binding", "setting": "Human δ-opioid (DOP); [3H]-Bremazocine, human DOP membranes", "value": "− (“−” indicates less than 50% inhibition at 10 μM)"}]}
{"smiles": "CO[C@H]1[C@H](O)[C@@H](COCc2ccc(-c3ccccc3)cc2)OC(OCc2ccccc2)[C@@H]1NC(=O)CCNC(=N)N", "note": "(stereo partly shown) [compound 83]", "values": [{"measurement": "A6 radioligand binding inhibition", "setting": "[1]; human MCH1 membranes", "value": "− (“−” indicates less than 50% inhibition at 10 μM)"}, {"measurement": "A5 radioligand binding inhibition", "setting": "Human melanocortin (MC5); human melanocortin MC5 membranes", "value": "+ (“+” indicates greater than 50% inhibition at 10 μM)"}, {"measurement": "A10 radioligand binding inhibition", "setting": "Human opioid (ORL1)", "value": "− (“−” indicates less than 50% inhibition at 10 μM)"}, {"measurement": "A9 radioligand binding inhibition", "setting": "[2]", "value": "− (“−” indicates less than 50% inhibition at 10 μM)"}, {"measurement": "A2 radioligand binding inhibition", "setting": "Human κ-Opioid (KOP); human κ-opioid (KOP) membranes", "value": "− (“−” indicates less than 50% inhibition at 10 μM)"}, {"measurement": "A8 radioligand binding inhibition", "setting": "Human neurokinin (NK1); human neurokinin NK1 membranes", "value": "+ (“+” indicates greater than 50% inhibition at 10 μM)"}, {"measurement": "A3 radioligand binding inhibition", "setting": "Human Melanocortin (MC3); human melanocortin MC3 membranes", "value": "− (“−” indicates less than 50% inhibition at 10 μM)"}, {"measurement": "A7 radioligand binding inhibition", "setting": "Human μ-opioid (MOP); human μ-opioid (MOP) membranes", "value": "+ (“+” indicates greater than 50% inhibition at 10 μM)"}, {"measurement": "A4 radioligand binding inhibition", "setting": "Human Melanocortin (MC4); human melanocortin MC4 membranes", "value": "− (“−” indicates less than 50% inhibition at 10 μM)"}, {"measurement": "A11 radioligand binding inhibition", "setting": "Mouse urotensin (mUR2); mouse urotensin mUR2 membranes", "value": "− (“−” indicates less than 50% inhibition at 10 μM)"}, {"measurement": "A1 radioligand binding inhibition", "setting": "Human δ-opioid (DOP); human δ-opioid (DOP) membranes", "value": "− (“−” indicates less than 50% inhibition at 10 μM)"}]}
